Data on 32 compounds can be found in ChEMBL document CHEMBL5543105, “Total synthesis and structural modification of the dibenzylbutane lignan LCA as a potent anti-inflammatory agent against LPS-induced acute lung injury” (Eur J Med Chem, 2024).

Data set [1] concerns RAW264.7. Put plainly: Cytotoxicity against mouse RAW264.7 cells upto 20 uM incubated for 24 hrs by CCK-8 assay. The data set is classed as toxicity, cell-based. The following applies: raw264.7, 24 h. (In general: Tetrazolium assays rely on reduction of a dye to a coloured formazan, in cell work by metabolically active cells.)
Data set [2] deals with RAW264.7. The data set can be described thus: Anti-inflammatory activity against mouse RAW264.7 cells assessed as inhibition of LPS-induced NO production at 20 uM incubated for 24 hrs. The data set is classed as functional, cell-based.

Active and inactive are the calls of the source. The rule behind the calls is not given here.

As to `COc1cc(C[C@H](C(=O)N2CCN(c3cccc(F)c3)CC2)[C@@H](Cc2cc(OC)c(O)c(OC)c2)C(=O)N2CCN(c3cccc(F)c3)CC2)cc(OC)c1O`, in the data set with RAW264.7 [1], the Activity entry is reported as “Non-Toxic”.
Consider `COc1cc(C[C@H](C(=O)NCC2CCC2)[C@@H](Cc2cc(OC)c(O)c(OC)c2)C(=O)NCC2CCC2)cc(OC)c1O`, for which, in the data set with RAW264.7 [1], the Activity entry is listed as “Non-Toxic”.
Turning to `COc1cc(C[C@H](C(=O)N2CCN(c3ccccc3C(F)(F)F)CC2)[C@@H](Cc2cc(OC)c(O)c(OC)c2)C(=O)N2CCN(c3ccccc3C(F)(F)F)CC2)cc(OC)c1O`, the Activity entry in the data set with RAW264.7 [1] is recorded as “Non-Toxic”. Also, in the data set on RAW264.7 [2], the outcome was Active.
Take `COc1cc(C[C@H](C(=O)NC2CC(F)(F)C2)[C@@H](Cc2cc(OC)c(O)c(OC)c2)C(=O)NC2CC(F)(F)C2)cc(OC)c1O`: the Activity entry in the data set on RAW264.7 [1] is reported as “Non-Toxic”.
The same measure, in the same setting: then `COc1cc(C[C@H](C(=O)NC2CC(OC)C2)[C@@H](Cc2cc(OC)c(O)c(OC)c2)C(=O)NC2CC(OC)C2)cc(OC)c1O` (stereo partly specified), with “Non-Toxic”.
Turning to `COc1cc(C[C@H](C(=O)N2CCN(c3ccc(Cl)cc3)CC2)[C@@H](Cc2cc(OC)c(O)c(OC)c2)C(=O)N2CCN(c3ccc(Cl)cc3)CC2)cc(OC)c1O`, the Activity result in the data set on RAW264.7 [1] is reported as “Non-Toxic”. In the data set with RAW264.7 [2], the result was Active.
Consider `COc1cc(C[C@H](C(=O)N2CCN(c3cccc(Cl)c3Cl)CC2)[C@@H](Cc2cc(OC)c(O)c(OC)c2)C(=O)N2CCN(c3cccc(Cl)c3Cl)CC2)cc(OC)c1O`, for which the Activity entry in the data set on RAW264.7 [1] was “Non-Toxic”.
The same measure, in the same setting: then `CNC(=O)[C@@H](Cc1cc(OC)c(O)c(OC)c1)[C@@H](Cc1cc(OC)c(O)c(OC)c1)C(=O)NC`, with “Non-Toxic”; and `COc1cc(C[C@H](C(=O)NC2CC2)[C@@H](Cc2cc(OC)c(O)c(OC)c2)C(=O)NC2CC2)cc(OC)c1O`, with “Non-Toxic”; and `COc1cc(C[C@H](C(=O)N2CCCCC2)[C@@H](Cc2cc(OC)c(O)c(OC)c2)C(=O)N2CCCCC2)cc(OC)c1O`, with “Non-Toxic”.
The same measure, in the same setting: then `COc1cc(C[C@H](C(=O)N2CCN(c3ccc(C)cc3)CC2)[C@@H](Cc2cc(OC)c(O)c(OC)c2)C(=O)N2CCN(c3ccc(C)cc3)CC2)cc(OC)c1O`, with “Non-Toxic”.
As to `COc1ccccc1N1CCN(C(=O)[C@@H](Cc2cc(OC)c(O)c(OC)c2)[C@@H](Cc2cc(OC)c(O)c(OC)c2)C(=O)N2CCN(c3ccccc3OC)CC2)CC1`, the Activity entry in the data set on RAW264.7 [1] is “Non-Toxic”.
With `CCCCCCNC(=O)[C@@H](Cc1cc(OC)c(O)c(OC)c1)[C@@H](Cc1cc(OC)c(O)c(OC)c1)C(=O)NCCCCCC`, the Activity entry in the data set with RAW264.7 [1] is “Non-Toxic”.
Same read-out and setting: then `COc1cc(C[C@H](C(=O)N2CCN(c3ccccc3)CC2)[C@@H](Cc2cc(OC)c(O)c(OC)c2)C(=O)N2CCN(c3ccccc3)CC2)cc(OC)c1O`, with “Non-Toxic”; and `COc1cc(C[C@H](C(=O)NC2CCCCC2)[C@@H](Cc2cc(OC)c(O)c(OC)c2)C(=O)NC2CCCCC2)cc(OC)c1O`, with “Non-Toxic”.
`COc1cc(C[C@H](C(=O)N2CCOCC2)[C@@H](Cc2cc(OC)c(O)c(OC)c2)C(=O)N2CCOCC2)cc(OC)c1O`: in the data set with RAW264.7 [1], the Activity entry is on record as “Non-Toxic”. Also, in the data set with RAW264.7 [2], the result was Active.
As to `COc1cc(C[C@H](C(=O)N2CCN(c3ccccc3C)CC2)[C@@H](Cc2cc(OC)c(O)c(OC)c2)C(=O)N2CCN(c3ccccc3C)CC2)cc(OC)c1O`, the Activity result in the data set with RAW264.7 [1] is given as “Non-Toxic”. The outcome in the data set on RAW264.7 [2] was Active.
In the case of `COc1cc(C[C@H](C(=O)N2CCN(c3ccccc3F)CC2)[C@@H](Cc2cc(OC)c(O)c(OC)c2)C(=O)N2CCN(c3ccccc3F)CC2)cc(OC)c1O`, the Activity result in the data set on RAW264.7 [1] is “Non-Toxic”.
The same measure, in the same setting: the result for `COc1cc(C[C@H](C(=O)N2CCN(c3ccccc3Br)CC2)[C@@H](Cc2cc(OC)c(O)c(OC)c2)C(=O)N2CCN(c3ccccc3Br)CC2)cc(OC)c1O` reads “Non-Toxic”; that for `COc1cc(C[C@H](C(=O)N2CCN(c3cccc(C)c3)CC2)[C@@H](Cc2cc(OC)c(O)c(OC)c2)C(=O)N2CCN(c3cccc(C)c3)CC2)cc(OC)c1O`, “Non-Toxic”; that for `COc1cccc(N2CCN(C(=O)[C@@H](Cc3cc(OC)c(O)c(OC)c3)[C@@H](Cc3cc(OC)c(O)c(OC)c3)C(=O)N3CCN(c4cccc(OC)c4)CC3)CC2)c1`, “Non-Toxic”.
For `COc1ccc(N2CCN(C(=O)[C@@H](Cc3cc(OC)c(O)c(OC)c3)[C@@H](Cc3cc(OC)c(O)c(OC)c3)C(=O)N3CCN(c4ccc(OC)cc4)CC3)CC2)cc1`, in the data set on RAW264.7 [1], the Activity entry is recorded as “Non-Toxic”.
Take `COc1cc(C[C@H](C(=O)N2CCN(c3cccc(Cl)c3)CC2)[C@@H](Cc2cc(OC)c(O)c(OC)c2)C(=O)N2CCN(c3cccc(Cl)c3)CC2)cc(OC)c1O`: the Activity result in the data set with RAW264.7 [1] is “Non-Toxic”. Further, the result with RAW264.7 [2] was Active.
Regarding `COc1cc(C[C@H](C(=O)NC2CCC(OC)CC2)[C@@H](Cc2cc(OC)c(O)c(OC)c2)C(=O)NC2CCC(OC)CC2)cc(OC)c1O` (stereo partly specified), the Activity result in the data set on RAW264.7 [1] is on record as “Non-Toxic”.
In the case of `COc1cc(C[C@H](C(=O)N2CCN(c3ccc(F)cc3)CC2)[C@@H](Cc2cc(OC)c(O)c(OC)c2)C(=O)N2CCN(c3ccc(F)cc3)CC2)cc(OC)c1O`, the Activity entry in the data set with RAW264.7 [1] was “Non-Toxic”.
For the compound `COc1cc(C[C@H](C(=O)N2CCN(c3ccccc3Cl)CC2)[C@@H](Cc2cc(OC)c(O)c(OC)c2)C(=O)N2CCN(c3ccccc3Cl)CC2)cc(OC)c1O`, the Activity result in the data set with RAW264.7 [1] was “Non-Toxic”. Also, the result in the data set on RAW264.7 [2] was Active.
As for `COc1cc(C[C@H](C(=O)N2CCN(c3cccc(C(F)(F)F)c3)CC2)[C@@H](Cc2cc(OC)c(O)c(OC)c2)C(=O)N2CCN(c3cccc(C(F)(F)F)c3)CC2)cc(OC)c1O`, the Activity entry in the data set with RAW264.7 [1] was “Non-Toxic”. Besides, the result with RAW264.7 [2] was Active.
As for `COc1cc(C[C@H](C(=O)N2CCN(c3ccc(C(F)(F)F)cc3)CC2)[C@@H](Cc2cc(OC)c(O)c(OC)c2)C(=O)N2CCN(c3ccc(C(F)(F)F)cc3)CC2)cc(OC)c1O`, the Activity result in the data set on RAW264.7 [1] is listed as “Non-Toxic”.
`COc1cc(C[C@H](C(=O)NC2CCC2)[C@@H](Cc2cc(OC)c(O)c(OC)c2)C(=O)NC2CCC2)cc(OC)c1O`: in the data set with RAW264.7 [1], the Activity entry is reported as “Non-Toxic”.
Turning to `COc1cc(C[C@H](C(=O)NCC2CCCCC2)[C@@H](Cc2cc(OC)c(O)c(OC)c2)C(=O)NCC2CCCCC2)cc(OC)c1O`, the Activity entry in the data set on RAW264.7 [1] is recorded as “Non-Toxic”.
With `COc1cc(C[C@H](C(=O)N2CCN(c3ccc(F)cc3F)CC2)[C@@H](Cc2cc(OC)c(O)c(OC)c2)C(=O)N2CCN(c3ccc(F)cc3F)CC2)cc(OC)c1O`, the Activity result in the data set with RAW264.7 [1] was “Non-Toxic”. The outcome in the data set with RAW264.7 [2] was Active.
For `COc1cc(C[C@H](C(=O)N2CCN(C)CC2)[C@@H](Cc2cc(OC)c(O)c(OC)c2)C(=O)N2CCN(C)CC2)cc(OC)c1O`, in the data set with RAW264.7 [1], the Activity result was “Non-Toxic”. The outcome with RAW264.7 [2] was Active.
